Experimental data: patent US10471054B2, “CDK1 inhibitors of acetyl chrysin mannich base derivatives, synthesis and use thereof” (priority 2016, dated 2019)

Tests used:
Type in all cases: cell-based
[1] = tested on: PBMCs, activated lymphocytes, human normal Liver cells; assay: H2O2 level in blood and normal cells, PF1-H2O2 fluorescent probe; details: CH-j: PBMCs and activated lymphocytes; BA-j: activated lymphocyte
Protocol: The cells are cancer cells (MCF-7, GBC-823, Hep G2) and normal cells (Liver, COS-7, PBMCs). According to the literature [Scientific Reports, 2015, 5: 13626; Anti-cancer Agents in Medicinal Chemistry, 2016, 16: 914-924.], in vitro cultured cells was given to CH-j 25 μM for 3.5 h, added PF1-H2O2 selective fluorescence probe 10 μM for 0.5 h and detected the concentration of H2O2 in cells, and performed fluorescence imaging by results shown in FIG. 1.
FIG. 1-3, FIG. 1-4, The fluorescence imaging by PF1-H2O2 10 μM is that CH-j […] for 4 h affected the level of H2O2 in MCF-7, GBC-823, Hep G2 and Liver.
FIG. 1-3: CH-j/BA-j affects the levels of H2O2 in blood cells, X-coordinate is the concentration of CH-j/BA-j concentration (μM), and Y-coordinate the intracellular levels of H2O2 (μM) for 4 h with PF1-H2O2 10 μM by Fluorescence Microplater Reader (488 nm/525 nm).

MCF-7 and COS-7 = assay: .OH level, CCy-OH fluorescent probe imaging; details: 12.5 μM for 5 h
BGC-823 [2] = assay: PI staining flow cytometry, cell cycle; details: 24 h
Text: PI specificity is combined with DNA, and the fluorescence intensity is in a good linear relationship with the combination of PI. After cell fixation, PI staining was used for quantitative analysis of DNA content in cells by flow cytometry. Since the amount of DNA in different cell cycles varies, it can be determined that the drug actions on the cell cycle. In cell apoptosis, there are many characteristic changes in the cell and molecular level, and the most characteristic of the change of nucleus is the change of nucleus. Due to activate apoptosis cells, DNA degradation, reduce the cell DNA, and therefore can be in the GO/G1 peak appeared before a diploid apoptosis peak (sub-G1), […] pyrolysis peak integer times of DNA, no less than […] pyrolysis peak.
In addition, high concentrations of drugs can also reduce the proportion of S stage cells.
FIG. 3-2 PI staining results for BGC-823.

BGC-823 [3] = assay: Annexin V-FITC-PI double fluorescence, apoptosis and necrosis; details: 24 h
Text: There is a series of morphological characteristic changes in the apoptosis of cells, in which the change of the plasma membrane is one of the characteristics of early apoptosis. The cytoplasm is flipped from the inside of the cytoplasm to the outer surface of the cell when the cell apoptosis, Annexin V is a Ca^++ dependent phospholipid binding protein, which has a high affinity with phospholipid-peptide-serine, which can be combined with the phospholipid peptide specificity that is exposed to the extracellular cells. However, cytoplasm transfer to cell membrane is not unique to apoptosis, but also can occur in cell necrosis. The difference between the two cell death modes is that the cell membrane is intact in the initial stage of apoptosis, and the integrity of the cell membrane in its early stage is destroyed. PI is a nucleic acid dye that cannot pass through the intact cell membrane, but in the cell and necrotic cells in the middle and late stage of apoptosis, the PI can dye the nucleus through the cell membrane. Annexin V-FITC-PI was used to detect apoptosis and necrotic cell ratio on flow cytometry.
A relatively small increase in apoptotic cells is increased.
FIG. 3-3 Annexin V-FITC/PI staining results for BGC-823.

HIF-1α = HIF-1α expression in BGC-823, immune-printing; details: 0, 2.5, 5, 10 μM for 1 h, then insulin
Protocol: BGC-823 was treated with 0, 2.5, 5, 10 μM CH-j for 1 h, then the 2 μM insulin was added, and 2 h were cultured, and the cells were collected and lysed.
FIG. 4: CH-j effect on the HIF-1 of BGC-823 was treated with 0, 2.5, 5, 10 μM CH-j for 1 h, then added 0.2 μM insulin culture for 24 h, and the HIF-1α and HIF-1β were determined by the immune imprinting method.

`CC(=O)c1c(O)c(CN2CCC(O)CC2)c2oc(-c3ccccc3)cc(=O)c2c1O` [CH-j, 6-Acetyl-5,7-dihydroxy-8-(4-hydroxy-piperidin-1-ylmethyl)-2-phenyl-chromen-4-one] was tested, and the “Dose dependence of H2O2 level” value [1] was “no significant dose-dependent manner”, the “Level of .OH, red fluorescence” value (MCF-7 and COS-7) was “present red fluorescence in MCF-7 and no in COS-7” and the “Cell cycle effect by PI staining” value (BGC-823 [2]) was “block the BGC-823 in G1, G2 phase”. The “Apoptosis and necrosis by Annexin V-FITC-PI” value (BGC-823 [3]) was “induce apoptosis the BGC-823 with obvious dose-dependent manner” and the HIF-1α expression (HIF-1α) was “inhibited HIF-1α expression in a dose-dependent manner”.
